HELM strings list units from the 5' end as sugar, base in round brackets, then linkage (d deoxyribose, r ribose, m 2'-O-methyl, p phosphodiester). Strings are as the collection lists them; they lack the last nucleoside at the 3' end of the tested compound. [moe] = 2'-O-(2-methoxyethyl) (MOE); [sp] = phosphorothioate linkage; [m5C] = 5-methylcytosine
Molecular target: GFAP
Experiment: mouse, dose not given
Conditions: ASO

RNA1{[moe](T)[sp].[moe]([m5C])p.[moe](A)p.[moe](G)p.[moe](T)p.d(T)[sp].d(T)[sp].d(T)[sp].d([m5C])[sp].d([m5C])[sp].d(T)[sp].d([m5C])[sp].d([m5C])[sp].d(A)[sp].d(G)[sp].[moe]([m5C])p.[moe](A)p.[moe](G)[sp].[moe]([m5C])}$$$$ (last 3' nucleoside missing)
3 h FOB score: 2 score 0-7

RNA1{[moe](T)[sp].[moe]([m5C])p.[moe](A)p.[moe](G)p.[moe]([m5C])[sp].d([m5C])[sp].d(T)[sp].d(G)[sp].d(G)[sp].d(T)[sp].d(T)[sp].d(A)[sp].d(G)[sp].[moe]([m5C])p.[moe]([m5C])p.[moe](T)[sp].[moe](T)}$$$$ (last 3' nucleoside missing)
3 h FOB score: 3 score 0-7

RNA1{[moe](T)[sp].[moe]([m5C])p.[moe](A)p.[moe](G)p.[moe]([m5C])p.[moe]([m5C])p.d(T)[sp].d(G)[sp].d(G)[sp].d(T)[sp].d(T)[sp].d(A)[sp].d(G)[sp].d([m5C])[sp].d([m5C])[sp].d(T)[sp].[moe](T)p.[moe](T)[sp].[moe]([m5C])}$$$$ (last 3' nucleoside missing)
3 h FOB score: 4 score 0-7

RNA1{[moe](T)[sp].[moe]([m5C])p.[moe](A)p.[moe](G)p.[moe]([m5C])p.d([m5C])[sp].d(T)[sp].d(G)[sp].d(G)[sp].d(T)[sp].d(T)[sp].d(A)[sp].d(G)[sp].d([m5C])[sp].d([m5C])[sp].[moe](T)p.[moe](T)p.[moe](T)[sp].[moe]([m5C])}$$$$ (last 3' nucleoside missing)
3 h FOB score: 4 score 0-7

RNA1{[moe](T)[sp].[moe]([m5C])p.[moe](A)p.[moe](G)p.d([m5C])[sp].d([m5C])[sp].d(T)[sp].d(G)[sp].d(G)[sp].d(T)[sp].d(T)[sp].d(A)[sp].d(G)[sp].d([m5C])[sp].[moe]([m5C])p.[moe](T)p.[moe](T)p.[moe](T)[sp].[moe]([m5C])}$$$$ (last 3' nucleoside missing)
3 h FOB score: 4 score 0-7

RNA1{[moe](T)[sp].[moe]([m5C])p.[moe](A)p.[moe]([m5C])p.[moe](A)[sp].d(T)[sp].d(T)[sp].d([m5C])[sp].d(A)[sp].d([m5C])[sp].d(T)[sp].d(A)[sp].d(A)[sp].[moe](T)p.[moe](A)p.[moe](T)[sp].[moe](T)}$$$$ (last 3' nucleoside missing)
3 h FOB score: 0 score 0-7

RNA1{[moe](T)[sp].[moe]([m5C])p.[moe](A)p.[moe]([m5C])p.[moe](A)[sp].d([m5C])[sp].d(T)[sp].d([m5C])[sp].d([m5C])[sp].d(T)[sp].d([m5C])[sp].d(A)[sp].d(G)[sp].d([m5C])[sp].d(T)[sp].[moe](A)p.[moe](G)p.[moe](G)[sp].[moe](T)}$$$$ (last 3' nucleoside missing)
3 h FOB score: 1 score 0-7

RNA1{[moe](T)[sp].[moe]([m5C])p.[moe](A)p.[moe]([m5C])p.[moe](A)p.[moe](T)p.d(T)[sp].d([m5C])[sp].d(A)[sp].d([m5C])[sp].d(T)[sp].d(A)[sp].d(A)[sp].d(T)[sp].d(A)[sp].d(T)[sp].[moe](T)p.[moe](T)[sp].[moe](A)}$$$$ (last 3' nucleoside missing)
3 h FOB score: 0 score 0-7

RNA1{[moe](T)[sp].[moe]([m5C])p.[moe](A)p.[moe]([m5C])p.[moe](A)p.d(T)[sp].d(T)[sp].d([m5C])[sp].d(A)[sp].d([m5C])[sp].d(T)[sp].d(A)[sp].d(A)[sp].d(T)[sp].d(A)[sp].[moe](T)p.[moe](T)p.[moe](T)[sp].[moe](A)}$$$$ (last 3' nucleoside missing)
3 h FOB score: 0 score 0-7

RNA1{[moe](T)[sp].[moe]([m5C])p.[moe](A)p.[moe]([m5C])p.d(A)[sp].d(T)[sp].d(T)[sp].d([m5C])[sp].d(A)[sp].d([m5C])[sp].d(T)[sp].d(A)[sp].d(A)[sp].d(T)[sp].[moe](A)p.[moe](T)p.[moe](T)p.[moe](T)[sp].[moe](A)}$$$$ (last 3' nucleoside missing)
3 h FOB score: 0 score 0-7

RNA1{[moe](T)[sp].[moe]([m5C])p.[moe](T)p.[moe](G)p.[moe](T)[sp].d(G)[sp].d([m5C])[sp].d(T)[sp].d(T)[sp].d(T)[sp].d(A)[sp].d(G)[sp].d(T)[sp].d(G)[sp].d(A)[sp].[moe]([m5C])p.[moe]([m5C])p.[moe](T)[sp].[moe](G)}$$$$ (last 3' nucleoside missing)
3 h FOB score: 4 score 0-7

RNA1{[moe](T)[sp].[moe]([m5C])p.[moe](T)p.[moe](G)p.[moe]([m5C])[sp].d(T)[sp].d([m5C])[sp].d(G)[sp].d(G)[sp].d(G)[sp].d([m5C])[sp].d([m5C])[sp].d([m5C])[sp].d([m5C])[sp].d(T)[sp].[moe]([m5C])p.[moe](A)p.[moe](T)[sp].[moe](G)}$$$$ (last 3' nucleoside missing)
3 h FOB score: 2 score 0-7

RNA1{[moe](T)[sp].[moe]([m5C])p.[moe](T)p.[moe](G)p.[moe]([m5C])[sp].d([m5C])[sp].d(A)[sp].d(T)[sp].d(T)[sp].d(T)[sp].d(A)[sp].d(T)[sp].d([m5C])[sp].[moe](T)p.[moe](G)p.[moe](T)[sp].[moe](G)}$$$$ (last 3' nucleoside missing)
3 h FOB score: 3 score 0-7

RNA1{[moe](T)[sp].[moe]([m5C])p.[moe](T)p.[moe](G)p.[moe]([m5C])[sp].d([m5C])[sp].d(A)[sp].d(T)[sp].d(T)[sp].d(T)[sp].d(A)[sp].d(T)[sp].d([m5C])[sp].d(T)[sp].d(G)[sp].[moe](T)p.[moe](G)p.[moe]([m5C])[sp].[moe](T)}$$$$ (last 3' nucleoside missing)
3 h FOB score: 0 score 0-7

RNA1{[moe](T)[sp].[moe]([m5C])p.[moe](T)p.[moe](G)p.[moe]([m5C])p.d([m5C])[sp].d(A)[sp].d(T)[sp].d(T)[sp].d(T)[sp].d(A)[sp].d(T)[sp].d([m5C])[sp].d(T)[sp].d(G)[sp].[moe](T)p.[moe](G)p.[moe]([m5C])[sp].[moe](T)}$$$$ (last 3' nucleoside missing)
3 h FOB score: 1 score 0-7

RNA1{[moe](T)[sp].[moe]([m5C])p.[moe](T)p.[moe](T)p.[moe](T)[sp].d(A)[sp].d(T)[sp].d(T)[sp].d(T)[sp].d(T)[sp].d(T)[sp].d([m5C])[sp].d([m5C])[sp].[moe](T)p.[moe]([m5C])p.[moe](A)[sp].[moe](G)}$$$$ (last 3' nucleoside missing)
3 h FOB score: 1 score 0-7

RNA1{[moe](T)[sp].[moe]([m5C])p.[moe](T)p.[moe](T)p.[moe](T)[sp].d(A)[sp].d(T)[sp].d(T)[sp].d(T)[sp].d(T)[sp].d(T)[sp].d([m5C])[sp].d([m5C])[sp].d(T)[sp].d([m5C])[sp].[moe](A)p.[moe](G)p.[moe]([m5C])[sp].[moe](G)}$$$$ (last 3' nucleoside missing)
3 h FOB score: 1 score 0-7

RNA1{[moe](T)[sp].[moe]([m5C])p.[moe](T)p.[moe](T)p.[moe](T)p.[moe](A)p.d(T)[sp].d(T)[sp].d(T)[sp].d(T)[sp].d(T)[sp].d([m5C])[sp].d([m5C])[sp].d(T)[sp].d([m5C])[sp].d(A)[sp].[moe](G)p.[moe]([m5C])[sp].[moe](G)}$$$$ (last 3' nucleoside missing)
3 h FOB score: 0 score 0-7

RNA1{[moe](T)[sp].[moe]([m5C])p.[moe](T)p.[moe](T)p.d(T)[sp].d(A)[sp].d(T)[sp].d(T)[sp].d(T)[sp].d(T)[sp].d(T)[sp].d([m5C])[sp].d([m5C])[sp].d(T)[sp].[moe]([m5C])p.[moe](A)p.[moe](G)p.[moe]([m5C])[sp].[moe](G)}$$$$ (last 3' nucleoside missing)
3 h FOB score: 1 score 0-7

Reference: the OligoGym collection
